The values below are quoted from earlier work in patent publication US20130338095A1, “Chemosensory Receptor Ligand-Based Therapies” (ELCELYX THERAPEUTICS, INC., priority 2010, published 2013).

One data set concerns the target T1, sweet receptor (Homo sapiens, UniProt Q7RTX0+Q8TE23).
T1 sequence (Q8TE23 20-839): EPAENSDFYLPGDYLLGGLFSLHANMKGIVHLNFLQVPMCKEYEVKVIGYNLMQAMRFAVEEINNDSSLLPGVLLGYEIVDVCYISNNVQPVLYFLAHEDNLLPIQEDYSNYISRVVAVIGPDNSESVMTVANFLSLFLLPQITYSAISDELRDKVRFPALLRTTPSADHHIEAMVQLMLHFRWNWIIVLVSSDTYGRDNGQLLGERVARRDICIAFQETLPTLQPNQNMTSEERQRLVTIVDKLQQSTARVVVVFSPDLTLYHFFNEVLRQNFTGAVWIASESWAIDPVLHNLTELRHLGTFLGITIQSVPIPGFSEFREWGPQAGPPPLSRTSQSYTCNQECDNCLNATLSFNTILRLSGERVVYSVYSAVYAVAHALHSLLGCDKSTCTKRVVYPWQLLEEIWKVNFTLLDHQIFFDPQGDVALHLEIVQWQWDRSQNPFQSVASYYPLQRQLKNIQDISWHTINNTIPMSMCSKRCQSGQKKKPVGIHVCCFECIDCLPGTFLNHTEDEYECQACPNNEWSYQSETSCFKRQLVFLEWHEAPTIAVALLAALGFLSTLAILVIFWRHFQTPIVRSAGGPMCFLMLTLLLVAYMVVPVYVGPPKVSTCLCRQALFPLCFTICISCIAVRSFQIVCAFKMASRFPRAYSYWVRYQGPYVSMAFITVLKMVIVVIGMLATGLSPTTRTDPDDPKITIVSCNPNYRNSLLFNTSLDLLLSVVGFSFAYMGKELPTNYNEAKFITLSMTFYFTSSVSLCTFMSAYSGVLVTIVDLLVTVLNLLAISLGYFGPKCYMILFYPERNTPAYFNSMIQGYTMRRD
T1 sequence (Q7RTX0 21-852): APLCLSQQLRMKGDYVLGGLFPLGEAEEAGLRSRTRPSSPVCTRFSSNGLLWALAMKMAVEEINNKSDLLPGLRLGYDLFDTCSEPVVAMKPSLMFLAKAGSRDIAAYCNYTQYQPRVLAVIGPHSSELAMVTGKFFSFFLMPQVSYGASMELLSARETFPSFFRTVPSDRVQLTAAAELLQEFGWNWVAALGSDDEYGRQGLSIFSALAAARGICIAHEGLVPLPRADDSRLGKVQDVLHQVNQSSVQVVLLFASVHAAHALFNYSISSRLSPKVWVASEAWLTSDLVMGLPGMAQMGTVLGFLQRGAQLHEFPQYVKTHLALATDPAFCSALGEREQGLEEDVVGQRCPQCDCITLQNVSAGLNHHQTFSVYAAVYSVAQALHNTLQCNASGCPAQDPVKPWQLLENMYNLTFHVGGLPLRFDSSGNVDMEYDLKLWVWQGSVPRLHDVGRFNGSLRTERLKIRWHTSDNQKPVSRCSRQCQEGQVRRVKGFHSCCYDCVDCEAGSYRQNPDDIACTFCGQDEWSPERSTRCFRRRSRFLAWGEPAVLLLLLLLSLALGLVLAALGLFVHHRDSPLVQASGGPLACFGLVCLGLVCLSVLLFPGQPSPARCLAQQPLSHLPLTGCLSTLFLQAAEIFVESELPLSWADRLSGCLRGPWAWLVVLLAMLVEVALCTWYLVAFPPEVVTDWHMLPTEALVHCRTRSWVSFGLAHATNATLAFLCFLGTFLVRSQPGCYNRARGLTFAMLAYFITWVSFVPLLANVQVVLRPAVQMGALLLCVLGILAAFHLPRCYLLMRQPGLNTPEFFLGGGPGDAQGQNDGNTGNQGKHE
As to conditions: relative sweetness on a weight comparison basis to sucrose (=1.0).
As for `C=C1C[C@@]23CC[C@H]4[C@@](C)(CCC[C@@]4(C)C(=O)O[C@@H]4O[C@H](CO)[C@@H](O)[C@H](O)[C@H]4O)[C@@H]2CC[C@]1(O[C@@H]1O[C@H](CO)[C@@H](O)[C@H](O)[C@H]1O[C@@H]1O[C@H](CO)[C@@H](O)[C@H](O)[C@H]1O)C3` [Stevioside], the Sweetness/potency is on record as 210.

For the molecule `CC[C@@H](C)C(=O)O[C@@H](C)[C@]1(O)CC[C@]2(O)[C@@H]3CC[C@H]4C[C@@H](O[C@@H]5C[C@H](O)[C@H](O[C@H]6C[C@H](OC)[C@H](O[C@H]7C[C@@H](OC)[C@H](O[C@H]8C[C@@H](OC)[C@H](O[C@@H]9O[C@H](C)[C@@H](O[C@@H]%10O[C@H](CO)[C@@H](O)[C@H](O)[C@H]%10O)[C@H](OC)[C@H]9O)[C@@H](C)O8)[C@@H](C)O7)[C@@H](C)O6)[C@@H](C)O5)CC[C@]4(C)[C@H]3C[C@@H](OC(C)=O)[C@]12C` [Telosmoside A15], the Sweetness/potency is recorded as 1000.

As to `O=C/C=C/c1ccccc1` [Trans-Cinnamaldehyde], the Sweetness/potency is 50.

For the molecule `C/C=C/c1ccc(OC)cc1` [trans-Anethole], the Sweetness/potency was 13.

For Albiziasaponin B, the Sweetness/potency is listed as 600.

As to Baiyunoside, the Sweetness/potency was 500.

For “Brazzein (QDKCKKVYENYPVSKCQLANQCNYDCKLDKHARSGECFYDEKRNLQCICDYCEY; UniProt P56552 1-54, looked up) [sweet protein from Pentadiplandra brazzeana]”, the Sweetness/potency was 2,000.

Carnosifloside V: the Sweetness/potency was 51.

As for Curculin, the Sweetness/potency was 550.

Take Cyclocarioside A: the Sweetness/potency is 200.

Cyclocaryoside I: the Sweetness/potency is given as 250.

In the case of Monellin, the Sweetness/potency is reported as 3,000.

As for Pentadin, the Sweetness/potency was 500.

Turning to Periandrin II, the Sweetness/potency was 95.

With Periandrin IV, the Sweetness/potency is reported as 85.

As to Polypodoside A, the Sweetness/potency is reported as 600.

Regarding Pterocaryoside A, the Sweetness/potency is recorded as 50.

For the molecule Rebaudioside B, the Sweetness/potency was 150.

As for Rebaudioside C, the Sweetness/potency is 30.

As for Scandenoside R6, the Sweetness/potency is listed as 54.

As for Thaumatin, the Sweetness/potency is reported as 1,600.

Test system in a further data set: not given
The conditions noted are these: bitter phytonutrients in common plant foods.
For the molecule `C=CCC(=NOS(=O)(=O)O)S[C@@H]1O[C@H](CO)[C@@H](O)[C@H](O)[C@H]1O` (stereo in doubt) [Sinigrin], the Taste quality result was “Bitter”.

Take `C[S+]([O-])CCCN=C=S` (stereo not shown) [3-Methyl-sulfinylpropyl isothiocyanate]: the Taste quality entry was “Acrid mustard oils”.

Consider `C[S+]([O-])CCCCN=C=S` (stereo not shown) [4-Methylsulfinyl butyl isothiocyanate], for which the Taste quality entry is recorded as “Acrid mustard oils”.

In the case of `O=c1c(-c2ccc(O)cc2)coc2cc(O[C@@H]3O[C@H](CO)[C@@H](O)[C@H](O)[C@H]3O)ccc12` [Daidzin], the Taste quality result was “Astringent”.

On to `O=C(O[C@@H]1Cc2c(O)cc(O)cc2O[C@@H]1c1ccc(O)c(O)c1)c1cc(O)c(O)c(O)c1` [Epicatechin gallate], for which the Taste quality entry was “Bitter and astringent”.

As to `O=c1c(-c2ccc(O)cc2)coc2cc(O)cc(O)c12` [Genistein], the Taste quality entry is on record as “Bitter or astringent”.

`O=c1c(-c2ccc(O)cc2)coc2cc(O[C@@H]3O[C@H](CO)[C@@H](O)[C@H](O)[C@H]3O)cc(O)c12` [Genistin]: the Taste quality result is listed as “Astringent”.

As to `O=S(=O)(O)ON=C(Cc1c[nH]c2ccccc12)S[C@@H]1O[C@H](CO)[C@@H](O)[C@H](O)[C@H]1O` [Glucobrassicin], the Taste quality entry is recorded as “Bitter”.

Turning to `C=CC1CNC(=S)O1` (stereo not shown) [Goitrin 5-vinyl-2-oxazolidine thione, 5-vinyl-2-oxazolidine thione], the Taste quality result is “Bitter”.

Regarding `CC1(C)O[C@H]2CC(=O)OC[C@]23[C@H]2CC[C@@](C)([C@@H](O[C@@H]4O[C@H](CO)[C@@H](O)[C@H](O)[C@H]4O)c4ccoc4)[C@@]4(O[C@@H]4C(=O)O)[C@]2(C)C(=O)C[C@@H]13` [Limonin glucoside], the Taste quality result is “Tasteless”.

For the molecule `CC1(C)O[C@H]2CC(=O)OC[C@]23[C@H]2CC[C@@]4(C)[C@H](c5ccoc5)OC(=O)[C@H]5O[C@]54[C@]2(C)C(=O)C[C@@H]13` [Limonin], the Taste quality result is given as “Bitter”.

With `C[C@@H]1O[C@@H](O[C@H]2[C@H](Oc3cc(O)c4c(c3)O[C@H](c3ccc(O)cc3)CC4=O)O[C@H](CO)[C@@H](O)[C@@H]2O)[C@H](O)[C@H](O)[C@H]1O` [Naringin], the Taste quality entry was “Bitter”.

`COc1ccc(-c2cc(=O)c3c(OC)c(OC)c(OC)c(OC)c3o2)cc1OC` [Nobiletin]: the Taste quality result is “Bitter”.

Consider `CC(=O)O[C@H]1CC(=O)OC(C)(C)[C@@H]2CC(=O)[C@]3(C)[C@H](CC[C@@]4(C)[C@H](c5ccoc5)OC(=O)[C@H]5O[C@]543)[C@@]12C` [Nomilin], for which the Taste quality entry is reported as “Bitter”.

With `C=C[C@H](O)CC(=NOS(=O)(=O)O)S[C@@H]1O[C@H](CO)[C@@H](O)[C@H](O)[C@H]1O` [Progoitrin], the Taste quality result is recorded as “Bitter”.

As for `O=c1c(O)c(-c2ccc(O)c(O)c2)oc2cc(O)cc(O)c12` [Quercetin], the Taste quality entry was “Bitter”.

As to `COc1ccc(-c2cc(=O)c3c(OC)c(OC)c(OC)cc3o2)cc1OC` [Sinensetin], the Taste quality result is “Bitter”.

Turning to `COc1ccc(-c2cc(=O)c3c(OC)c(OC)c(OC)c(OC)c3o2)cc1` [Tangeretin], the Taste quality entry is given as “Bitter”.

Regarding `O=c1c(-c2ccc(O)cc2)coc2cc(O)ccc12` [daidzein], the Taste quality result was “Bitter or astringent”.

A further data set relates to GLP-1. As to conditions: rats.
Regarding `OCCN1C[C@H](O)[C@@H](O)[C@H](O)[C@H]1CO` [miglitol], the “increase in GLP-1 with administration of a DPP-IV inhibitor” value is reported as “synergistic”.

Test system in a further data set: not given
As to conditions: patients with jejunostomy.
With “GLP-2: gut hormone, glucagon-like peptide 2 (HADGSFSDEMNTILDNLAARDFINWLIQTKITD; Glucagon-like peptide 2; UniProt P01275 146-178, looked up)”, the “intestinal absorption of energy” value was “improve” and the “intestinal wet weight absorption” value is given as “improve”.
